Measurements taken from publication PMC5601486, “Identification of 4-phenylquinolin-2(1H)-one as a specific allosteric inhibitor of Akt” (Scientific Reports, 2017).

Legend:
Assay in all cases: KINOMEscan
Conditions in all cases: 50000 nM
PRKCE = tested on: PRKCE
Method: KINOMEscan™ selectivity screen
(§1) The assay was perfor med at DiscoveRx Corporation according the methods published previously5. Briefly, Kinase-tagged T7 phage strains were grown in parallel in an E. coli host derived from the BL21 strain. E. coli were grown to log-phase and infected with T7 phage from a frozen stock and incubated with shaking at 32°C until lysis (90-150 minutes). The kinases were produced in HEK-293 cells and subsequently tagged with DNA for qPCR detection. Streptavidin-coated magnetic beads were treated with biotinylated small molecule ligands to generate affinity resins for kinase
(§2) inhibitor or DMSO control was performed in polypropylene 384-well plates for 1 hr at room temperature. After wash with PBS buffer containing 0.05% Tween 20, the beads were incubated in elution buffer (PBS containing 0.05 % Tween 20 and 0.5 μM non-biotinylated affinity ligand) for 30 minutes at room temperature. The kinase concentration in the eluates was measured by qPCR.

TNK2 = tested on: TNK2
Method: KINOMEscan™ selectivity screen
as §1, §2

TYRO3 = tested on: TYRO3
Method: KINOMEscan™ selectivity screen
as §1, §2

NEK11 = tested on: NEK11
Method: KINOMEscan™ selectivity screen
(§3) Briefly, Kinase-tagged T7 phage strains were grown in parallel in an E. coli host derived from the BL21 strain. E. coli were grown to log-phase and infected with T7 phage from a frozen stock and incubated with shaking at 32°C until lysis (90-150 minutes). The kinases were produced in HEK-293 cells and subsequently tagged with DNA for qPCR detection. Streptavidin-coated magnetic beads were treated with biotinylated small molecule ligands to generate affinity resins for kinase
as §2

ERBB3 = tested on: ERBB3
Method: KINOMEscan™ selectivity screen
as §1, §2

PHKG1 = tested on: PHKG1
Method: KINOMEscan™ selectivity screen
as §3, §2

MARK1 = tested on: MARK1
Method: KINOMEscan™ selectivity screen
(§4) The assay was perfor med at DiscoveRx Corporation according the methods published previously5. […] The kinases were produced in HEK-293 cells and subsequently tagged with DNA for qPCR detection. Streptavidin-coated magnetic beads were treated with biotinylated small molecule ligands to generate affinity resins for kinase
as §2

MST2 = tested on: MST2
Method: KINOMEscan™ selectivity screen
as §4, §2

[1] = tested on: ABL1(M351T)-phosphorylated
Method: KINOMEscan™ selectivity screen
as §4, §2

CSF1R = tested on: CSF1R
Method: KINOMEscan™ selectivity screen
as §1, §2

Question: `Oc1cc(-c2ccccc2)c2ccccc2n1` [G7, 4-phenylquinolin-2(1H)-one] was tested. Which “Percent Control” value (PRKCE) did it give?
Answer: 100%

Question: And the “Percent Control” value (TNK2)?
Answer: 99%

Question: What about the “Percent Control” value (TYRO3) of the same molecule?
Answer: 93%

Question: What about the “Percent Control” value (NEK11) of the same molecule?
Answer: 90%

Question: And the “Percent Control” value (ERBB3)?
Answer: 88%

Question: And the “Percent Control” value (PHKG1)?
Answer: 79%

Question: What about the “Percent Control” value (MARK1) of the same molecule?
Answer: 76%

Question: And the “Percent Control” value (MST2)?
Answer: 76%

Question: What about the “Percent Control” value [1] of the same molecule?
Answer: 55%

Question: And the “Percent Control” value (CSF1R)?
Answer: 7.4%
